Drawing on patent US10508104B2, “6-hydroxy-5-(phenyl/heteroarylsulfonyl)pyrimidin-4(1H)-one as APJ agonists” (Bristol-Myers Squibb Company, priority 2016, dated 2019), this text covers EC50 for 28 molecules.

SMILES strings stand for the structures.

The target of this experiment is human APJ receptor (Homo sapiens (Human), UniProt P35414). Kind of experiment: Intracellular cAMP accumulation assay (APJ hcAMP, HTRF). The class given is cell-based. Conditions: human APJ, cAMP accumulation; read-out: Human APJ cAMP EC50 Potency range. The essentials: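 HEK293 cells stably expressing human APJ, 5,000 per well, incubated 30 min at rt with compound, […] and 2 μM forskolin. cAMP measured by HTRF against a cAMP standard curve as inhibition of forskolin-driven production. EC50 from variable-slope sigmoidal fit.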
Chain of human APJ receptor (P35414 whole entry): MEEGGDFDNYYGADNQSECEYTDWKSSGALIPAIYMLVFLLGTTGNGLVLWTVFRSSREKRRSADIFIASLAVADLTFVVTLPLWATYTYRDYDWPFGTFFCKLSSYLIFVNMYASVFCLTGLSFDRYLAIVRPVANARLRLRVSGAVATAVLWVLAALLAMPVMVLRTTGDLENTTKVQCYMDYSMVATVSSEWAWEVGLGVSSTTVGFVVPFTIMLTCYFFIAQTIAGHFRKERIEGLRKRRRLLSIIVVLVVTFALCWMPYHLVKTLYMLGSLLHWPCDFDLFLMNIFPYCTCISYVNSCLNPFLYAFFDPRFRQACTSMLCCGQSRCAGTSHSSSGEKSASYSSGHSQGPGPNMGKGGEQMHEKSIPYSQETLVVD
For orientation: EC50 means the concentration needed to bring the measured effect to its halfway point. In the case of `CCOCc1nc(=O)c(S(=O)(=O)c2ccc(Br)cc2)c(O)n1[C@@H](CC)c1ccccc1` [Example 285, 5-(4-bromobenzenesulfonyl)-2-(ethoxymethyl)-6-hydroxy-1-[(1S)-1-phenylpropyl]-1,4-dihydropyrimidin-4-one], the EC50 was 100 to 300 nM. For the molecule `CC[C@@H](c1ccccc1)n1c(COC(C)C)nc(=O)c(S(=O)(=O)c2ccc(Br)cc2)c1O` [Example 286, 5-(4-bromobenzenesulfonyl)-6-hydroxy-1-[(1S)-1-phenylpropyl]-2-[(propan-2-yloxy)methyl]-1,4-dihydropyrimidin-4-one], the EC50 was 100 to 300 nM. Turning to `CCCCc1nc(=O)c(S(=O)(=O)c2ccc(-n3ccccc3=O)cc2)c(O)n1[C@@H](CC)c1ccccc1` [Example 287, 2-butyl-6-hydroxy-5-[4-(2-oxo-1,2-dihydropyridin-1-yl)benzenesulfonyl]-1-[(1S)-1-phenylpropyl]-1,4-dihydropyrimidin-4-one], the EC50 lay within 0.01 to 10 nM. For the molecule `CCCCc1nc(=O)c(S(=O)(=O)c2ccc(-n3cc(Cl)ccc3=O)cc2)c(O)n1[C@@H](COC)c1ccccc1` [Example 288, 2-butyl-5-[4-(5-chloro-2-oxo-1,2-dihydropyridin-1-yl)benzenesulfonyl]-6-hydroxy-1-[(1R)-2-methoxy-1-phenylethyl]-1,4-dihydropyrimidin-4-one], the concentration giving a half-maximal response (EC50) lay in the range of 0.01 to 10 nM. To `CCCCc1nc(=O)c(S(=O)(=O)c2ccc(-c3ccc(F)nc3)cc2)c(O)n1[C@@H](CC)c1ccccc1` [Example 289, 2-butyl-5-[4-(6-fluoropyridin-3-yl)benzenesulfonyl]-6-hydroxy-1-[(1S)-1-phenylpropyl]-1,4-dihydropyrimidin-4-one] belongs 0.01 to 10 nM; to `CCCCc1nc(=O)c(S(=O)(=O)c2ccc(-c3cncc(F)c3)cc2)c(O)n1[C@@H](CC)c1ccccc1` [Example 290, 2-butyl-5-[4-(5-fluoropyridin-3-yl)benzenesulfonyl]-6-hydroxy-1-[(1S)-1-phenylpropyl]-1,4-dihydropyrimidin-4-one], 0.01 to 10 nM; to `CCCCc1nc(=O)c(S(=O)(=O)c2ccc(-c3ccncc3C)cc2)c(O)n1[C@@H](CC)c1ccccc1` [Example 291, 2-butyl-6-hydroxy-5-[4-(3-methylpyridin-4-yl)benzenesulfonyl]-1-[(1S)-1-phenylpropyl]-1,4-dihydropyrimidin-4-one], 0.01 to 10 nM.

Turning to `CCCCc1nc(=O)c(S(=O)(=O)c2ccc(-c3cnc(C)nc3)cc2)c(O)n1[C@@H](CC)c1ccccc1` [Example 292, 2-butyl-6-hydroxy-5-[4-(2-methylpyrimidin-5-yl)benzenesulfonyl]-1-[(1S)-1-phenylpropyl]-1,4-dihydropyrimidin-4-one], the EC50 was in the range of 10 to 100 nM.

As to `CCCCc1nc(=O)c(S(=O)(=O)c2ccc(-c3cncc(C)c3)cc2)c(O)n1[C@@H](CC)c1ccccc1` [Example 293, 2-butyl-6-hydroxy-5-[4-(5-methylpyridin-3-yl)benzenesulfonyl]-1-[(1S)-1-phenylpropyl]-1,4-dihydropyrimidin-4-one], the half-maximal effective concentration (EC50) was in the range of 0.01 to 10 nM. On to `COC[C@@H](c1ccccc1)n1c(COC(C)C)nc(=O)c(S(=O)(=O)c2ccc(Br)c(F)c2)c1O` [Example 294, 5-(4-bromo-3-fluorobenzenesulfonyl)-6-hydroxy-1-[(1R)-2-methoxy-1-phenylethyl]-2-[(propan-2-yloxy)methyl]-1,4-dihydropyrimidin-4-one], for which the EC50 was 0.01 to 10 nM.

As for `COC[C@@H](c1ccccc1)n1c(COC(C)C)nc(=O)c(S(=O)(=O)c2ccc(Br)cc2)c1O` [Example 295, 5-(4-bromobenzenesulfonyl)-6-hydroxy-1-[(1R)-2-methoxy-1-phenylethyl]-2-[(propan-2-yloxy)methyl]-1,4-dihydropyrimidin-4-one], the EC50 lay within 10 to 100 nM. Take `CCOCc1nc(=O)c(S(=O)(=O)c2ccc(Br)cc2)c(O)n1[C@@H](COC)c1ccccc1` [Example 296, 5-(4-bromobenzenesulfonyl)-2-(ethoxymethyl)-6-hydroxy-1-[(1R)-2-methoxy-1-phenylethyl]-1,4-dihydropyrimidin-4-one]: the EC50 was 100 to 300 nM.

As to `CCOCc1nc(=O)c(S(=O)(=O)c2ccc(Br)cc2)c(O)n1[C@H]1CCc2ccccc21` [Example 297, 5-(4-bromobenzenesulfonyl)-1-[(1S)-2,3-dihydro-1H-inden-1-yl]-2-(ethoxymethyl)-6-hydroxy-1,4-dihydropyrimidin-4-one], the EC50 is 10 to 100 nM.

Turning to `CCOCc1nc(=O)c(S(=O)(=O)c2ccc(Br)c(F)c2)c(O)n1C(COC)c1cccc(F)c1` (stereo not shown) [Example 298, 5-(4-bromo-3-fluorobenzenesulfonyl)-2-(ethoxymethyl)-1-[1-(3-fluorophenyl)-2-methoxyethyl]-6-hydroxy-1,4-dihydropyrimidin-4-one], the half-maximal effective concentration (EC50) lay within 0.01 to 10 nM.

As to `CC(C)OCc1nc(=O)c(S(=O)(=O)c2ccc(Br)cc2)c(O)n1[C@H]1CCc2ccccc21` [Example 299, 5-(4-bromobenzenesulfonyl)-1-[(1S)-2,3-dihydro-1H-inden-1-yl]-6-hydroxy-2-[(propan-2-yloxy)methyl]-1,4-dihydropyrimidin-4-one], the concentration for a half-maximal effect (EC50) lay in the range of 10 to 100 nM. To `CCOCc1nc(=O)c(S(=O)(=O)c2ccc(Br)c(F)c2)c(O)n1[C@@H](COC)c1ccccc1` [Example 300, 5-(4-bromo-3-fluorobenzenesulfonyl)-2-(ethoxymethyl)-6-hydroxy-1-[(1R)-2-methoxy-1-phenylethyl]-1,4-dihydropyrimidin-4-one] belongs 0.01 to 10 nM. As to `CCOCc1nc(=O)c(S(=O)(=O)c2ccc(Br)c(F)c2)c(O)n1[C@@H](COC)c1cccc(C#N)c1` [Example 301, 3-[(1R)-1-[5-(4-bromo-3-fluorobenzenesulfonyl)-2-(ethoxymethyl)-6-hydroxy-4-oxo-1,4-dihydropyrimidin-1-yl]-2-methoxyethyl] benzonitrile], the EC50 was in the range of 0.01 to 10 nM. As for `CCCCc1nc(=O)c(S(=O)(=O)c2ccc(Br)cc2)c(O)n1[C@@H](CC)c1cccc(C#N)c1` [Example 302, 3-[(1S)-1-[5-(4-bromobenzenesulfonyl)-2-butyl-4-hydroxy-6-oxo-1,6-dihydropyrimidin-1-yl]propyl]benzonitrile], the figure is 0.01 to 10 nM; as for `CCOCc1nc(=O)c(S(=O)(=O)c2ccc(C3CC3)cc2)c(O)n1[C@H]1CCc2ccccc21` [Example 303, 5-(4-cyclopropylbenzene-sulfonyl)-1-[(1S)-2,3-dihydro-1H-inden-1-yl]-2-(ethoxymethyl)-6-hydroxy-1,4-dihydropyrimidin-4-one], 0.01 to 10 nM. In the case of `COC[C@@H](c1ccccc1)n1c(COC(C)C)nc(=O)c(S(=O)(=O)c2ccc(-c3ccc(F)nc3C)c(F)c2)c1O` [Example 304, 5-[3-fluoro-4-(6-fluoro-2-methylpyridin-3-yl)benzenesulfonyl]-6-hydroxy-1-[(1R)-2-methoxy-1-phenylethyl]-2-[(propan-2-yloxy)methyl]-1,4-dihydropyrimidin-4-one], the concentration giving a half-maximal response (EC50) is 0.01 to 10 nM. For `CCOCc1nc(=O)c(S(=O)(=O)c2ccc(-c3ccc(F)nc3)cc2)c(O)n1[C@@H](CC)c1ccccc1` [Example 305, 2-(ethoxymethyl)-5-[4-(6-fluoropyridin-3-yl)benzenesulfonyl]-6-hydroxy-1-[(1S)-1-phenylpropyl]-1,4-dihydropyrimidin-4-one], the EC50 lay within 0.01 to 10 nM.

`CCOCc1nc(=O)c(S(=O)(=O)c2ccc(-c3ccncc3C)cc2)c(O)n1[C@@H](CC)c1ccccc1` [Example 306, 2-(ethoxymethyl)-6-hydroxy-5-[4-(3-methylpyridin-4-yl)benzenesulfonyl]-1-[(1S)-1-phenylpropyl]-1,4-dihydropyrimidin-4-one]: the concentration giving a half-maximal response (EC50) lay within 0.01 to 10 nM.

Consider `CCOCc1nc(=O)c(S(=O)(=O)c2ccc(-c3ccnc(F)c3C)cc2)c(O)n1[C@@H](CC)c1ccccc1` [Example 307, 2-(ethoxymethyl)-5-[4-(2-fluoro-3-methylpyridin-4-yl)benzenesulfonyl]-6-hydroxy-1-[(1S)-1-phenylpropyl]-1,4-dihydropyrimidin-4-one], for which the EC50 is 0.01 to 10 nM.

As to `CCOCc1nc(=O)c(S(=O)(=O)c2ccc(-c3ccc(F)nc3C)cc2)c(O)n1[C@@H](CC)c1ccccc1` [Example 308, 2-(ethoxymethyl)-5-[4-(6-fluoro-2-methylpyridin-3-yl)benzenesulfonyl]-6-hydroxy-1-[(1S)-1-phenylpropyl]-1,4-dihydropyrimidin-4-one], the EC50 fell in the range of 0.01 to 10 nM.

Regarding `CCOCc1nc(=O)c(S(=O)(=O)c2ccc(-c3ccc(OC)nc3C)cc2)c(O)n1[C@@H](CC)c1ccccc1` [Example 309, 2-(ethoxymethyl)-6-hydroxy-5-[4-(6-methoxy-2-methylpyridin-3-yl)benzenesulfonyl]-1-[(1S)-1-phenylpropyl]-1,4-dihydropyrimidin-4-one], the EC50 lay in the range of 0.01 to 10 nM.

As to `CCOCc1nc(=O)c(S(=O)(=O)c2ccc(-c3cccnc3C)cc2)c(O)n1[C@@H](CC)c1ccccc1` [Example 310, 2-(ethoxymethyl)-6-hydroxy-5-[4-(2-methylpyridin-3-yl)benzenesulfonyl]-1-[(1S)-1-phenylpropyl]-1,4-dihydropyrimidin-4-one], the concentration for a half-maximal effect (EC50) was 0.01 to 10 nM.

For the molecule `CC[C@@H](c1ccccc1)n1c(COC(C)C)nc(=O)c(S(=O)(=O)c2ccc(-c3ccc(F)nc3C)cc2)c1O` [Example 311, 5-[4-(6-fluoro-2-methylpyridin-3-yl)benzenesulfonyl]-6-hydroxy-1-[(1S)-1-phenylpropyl]-2-[(propan-2-yloxy)methyl]-1,4-dihydropyrimidin-4-one], the EC50 lay within 0.01 to 10 nM. For the molecule `CC[C@@H](c1ccccc1)n1c(COC(C)C)nc(=O)c(S(=O)(=O)c2ccc(-c3ccnc(F)c3C)cc2)c1O` [Example 312, 5-[4-(2-fluoro-3-methylpyridin-4-yl)benzenesulfonyl]-6-hydroxy-1-[(1S)-1-phenylpropyl]-2-[(propan-2-yloxy)methyl]-1,4-dihydropyrimidin-4-one], the EC50 lay within 0.01 to 10 nM.
